Laboratory results: patent publication US5840936A, “Aminosterol compounds useful as inhibitors of the sodium/proton exchanger (NHE)” (priority 1995, dated 1998)

Key:
[1] = test system: chick embryo vitelline capillaries; test: Chick embryo vitelline capillary regression assay; type: in vivo; parameters: key to Vitelline capillary regression: +: Vascular reactivity; 0: No vascular reactivity; +/-: Equivocal reactivity
Procedure: Using the chick embryo vitelline capillaries assay, compounds were tested for their ability to induce capillary regression. Each compound was applied in 0.1 ml of 15% Ficol 400 and PBS onto the embryo, and vascular regression was assessed after 60 minutes.
The 3-day chick embryo consists of an embryonic disc from which numerous vessels emerge and return, forming a "FIG. 8"-shaped structure--the embryo in the center with vascular loops extending outward over both poles. […] Following a lag period of around 15 minutes, the constriction of continuity between capillary and secondary vessels, generally on the "venous" side, was observed. Continued pulsatile blood flow progressed, resulting in a "swelling" of the blind tube, followed by a pinching off of the remaining connection and formation of an enclosed vascular sac resembling a "blood island." This process progressed until only the largest vessels remained intact.

[2] = test system: HM; test: HM MTT assay; type: cell-based; details: Table II; read-out: HM MTT assay, Minimum Effective Concentration
[3] = test system: ELC; test: ELC MTT; type: cell-based; details: Table II; read-out: ELC MTT, Minimum Effective Concentration
[4] = test system: human melanoma; test: Time course of effect on melanoma growth; apoptosis; type: cell-based
[5] = test system: Xenopus tadpoles, stage 59-60; test: Xenopus tadpole assay; details: in vivo

For `CC(C)CCC[C@@H](C)[C@H]1CC[C@H]2[C@@H]3CC[C@H]4C[C@@H](NCCCNCCCCNCCCN)CC[C@]4(C)[C@H]3CC[C@]12C` [Compound 353], the Vitelline capillary regression ([1]; 1 μg applied) was “+/-”, the “Effect on chick embryo vessels” value ([1]; 3- to 5-day chick embryo) was “no effect on the chick embryo capillary bed” and the minimal effective concentration [2] was 3 µg/mL. The minimal effective concentration [3] was 1.9 µg/mL, the Apoptosis [4] was “apoptotic cell death has been induced” and the “Time course of effect on growth of melanoma” value [4] was “most pronounced over 48 hours, with less of an effect noted within the first 12 hours of incubation”. For the same compound, the “Pharmacologic similarity in tadpole assay” value [5] was “effects like those produced by compound 1436”.
